One experiment has as its system HeLa cells. The experiment in a line: Proliferation assay, crystal violet (Method 3). The class given is cell-based, human. To be noted: Homo sapiens, 96 h, 4 days, read-out: Inhibition of HeLa cell proliferation IC50. How it is done: (§1) Cultivated tumour cells (HeLa, human cervical tumour cells, ATCC CCL-2; NCI-H460, human non-small cell lung carcinoma cells, ATCC HTB-177; DU 145, hormone-independent human prostate carcinoma cells, ATCC HTB-81; HeLa-MaTu-ADR, multidrug-resistant human cervical carcinoma cells, EPO-GmbH Berlin; Caco-2, human colorectal carcinoma cells, ATCC HTB-37; B16F10, mouse melanoma cells, ATCC CRL-6475) were plated at a density of 5,000 cells/well (DU145, HeLa-MaTu-ADR), 3,000 cells/well (NCI-H460, HeLa), 1,500 cells/well (Caco-2), or 1,000 cells/well (B16F10) in a 96-well multititer plate in 200 μL of their respective growth medium supplemented 10% fetal calf serum. After 24 hours, the cells of one plate (zero-point plate) were stained with crystal violet (see below), while the medium of the other plates was supplemented with the test substances in various concentrations (0 μM, as well as in the range of 0.0001-10 μM; the final concentration of the solvent dimethyl sulfoxide was adjusted to 0.1%) using a Hewlett-Packard HP D300 Digital Dispenser. The cells were incubated for 4 days in the presence of test substances. Cell proliferation was determined by staining the cells with crystal violet: the cells were fixed by adding 20 μl/measuring point of an 11% glutaric aldehyde solution for 15 minutes at room temperature. After three washing cycles of the fixed cells with water, the plates were dried at room temperature. The cells were stained by adding 100 μl/measuring point of a 0.1% crystal violet solution (pH 3.0). After three washing cycles of the stained cells with water, the plates were dried at room temperature. The dye was dissolved by adding 100 μl/measuring point of a 10% acetic acid solution. The extinction was determined by photometry at a wavelength of 595 nm. The change of cell number, in percent, was calculated by normalization of the measured values to the extinction values of the zero-point plate (=0%) and the extinction of the untreated (0 μm) cells (=100%). The IC50 values (inhibitory concentration at 50% of maximal effect) were determined by means of a 4 parameter fit.

The test system of the next experiment is HeLa-MaTu-ADR cells. The experiment in a line: Proliferation assay, crystal violet (Method 3). The class given is cell-based. The following applies: Homo sapiens, 96 h, 4 days, read-out: Inhibition of HeLa-MaTu-ADR cell proliferation IC50. How it is done:
as §1

For the next experiment, the system named is Caco-2 cells. The experiment can be described thus: Proliferation assay, crystal violet (Method 3). The format is cell-based. To be noted: Homo sapiens, 96 h; Caco-2, 4 days; read-out: Inhibition of Caco-2 cell proliferation IC50. How it is done: as §1
A further experiment has as its system B16F10 cells. The experiment can be described thus: Proliferation assay, crystal violet (Method 3). The class given is cell-based. To be noted: Mus musculus, B16-F10, 96 h; B16F10, 4 days; read-out: Inhibition of B16F10 cell proliferation IC50. The procedure: as §1
Another experiment concerns NCI-H460 cells. The experiment can be described thus: Proliferation assay, crystal violet (Method 3). The format is cell-based. The following applies: Homo sapiens, 96 h; NCI-H460, 4 days; read-out: Inhibition of NCI-H460 cell proliferation IC50. The procedure:
as §1

The subject of another experiment is DU145 cells. The experiment in a line: Proliferation assay, crystal violet (Method 3). The following applies: Homo sapiens, DU-145, 96 h; DU145, 4 days; read-out: Inhibition of DU145 cell proliferation IC50. The class given is cell-based. The procedure: as §1
The target in another experiment is T1, CDK9/CycT1 (Homo sapiens, UniProt P50750).
T1 construct: Recombinant full-length His-tagged human CDK9 and CycT1; His; purchased Invitrogen PV4131; host or cells: insect cells
T1 sequence (P50750 whole entry): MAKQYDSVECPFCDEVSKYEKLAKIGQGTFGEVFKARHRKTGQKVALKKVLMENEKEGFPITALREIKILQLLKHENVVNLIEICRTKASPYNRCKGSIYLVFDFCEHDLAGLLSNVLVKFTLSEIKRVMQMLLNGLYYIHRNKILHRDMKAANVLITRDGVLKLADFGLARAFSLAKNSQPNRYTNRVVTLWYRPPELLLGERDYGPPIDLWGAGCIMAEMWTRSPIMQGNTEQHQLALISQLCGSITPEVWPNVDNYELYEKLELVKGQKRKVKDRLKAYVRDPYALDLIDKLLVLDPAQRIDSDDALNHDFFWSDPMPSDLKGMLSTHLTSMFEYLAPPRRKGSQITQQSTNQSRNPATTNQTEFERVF
T1 sequence (O60563 whole entry partner): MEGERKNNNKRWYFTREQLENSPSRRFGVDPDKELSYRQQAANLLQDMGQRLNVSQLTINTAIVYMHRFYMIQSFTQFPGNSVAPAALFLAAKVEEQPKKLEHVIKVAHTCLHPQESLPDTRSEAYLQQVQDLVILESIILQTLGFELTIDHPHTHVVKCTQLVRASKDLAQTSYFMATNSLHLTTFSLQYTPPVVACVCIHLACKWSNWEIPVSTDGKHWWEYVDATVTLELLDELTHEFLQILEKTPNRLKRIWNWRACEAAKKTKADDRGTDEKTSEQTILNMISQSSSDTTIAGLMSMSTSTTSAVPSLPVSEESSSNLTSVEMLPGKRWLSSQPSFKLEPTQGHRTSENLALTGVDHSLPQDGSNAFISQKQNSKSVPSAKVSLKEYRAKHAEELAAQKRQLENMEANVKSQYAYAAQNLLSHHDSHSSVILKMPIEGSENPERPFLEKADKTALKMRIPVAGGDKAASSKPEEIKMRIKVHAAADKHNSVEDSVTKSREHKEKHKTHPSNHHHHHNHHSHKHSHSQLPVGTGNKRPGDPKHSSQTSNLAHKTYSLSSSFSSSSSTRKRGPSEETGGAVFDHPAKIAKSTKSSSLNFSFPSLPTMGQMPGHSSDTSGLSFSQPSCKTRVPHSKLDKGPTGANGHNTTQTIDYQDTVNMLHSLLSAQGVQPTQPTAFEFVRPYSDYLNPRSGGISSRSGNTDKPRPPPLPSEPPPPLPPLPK
The experiment can be described thus: CDK9/CycT1 kinase assay (TR-FRET, Method 1a). The format is biochemical. The following applies: 10 μM ATP; for IC50: Method 1a; for Selectivity CDK9 over CDK2: IC50 (CDK2)/IC50 (CDK9): Methods 1a and 2a. The source says: 1a. CDK9/CycT1 Kinase Assay:
CDK9/CycT1-inhibitory activity of compounds of the present invention was quantified employing the CDK9/CycT1 TR-FRET assay as described in the following paragraphs:
Recombinant full-length His-tagged human CDK9 and CycT1, expressed in insect cells and purified by Ni-NTA affinity chromatography, were purchased from Invitrogen (Cat. No PV4131). As substrate for the kinase reaction biotinylated peptide biotin-Ttds-YISPLKSPYKISEG (C-terminus in amid form) was used which can be purchased e.g. from the company JERINI Peptide Technologies (Berlin, Germany).
For the assay 50 nl of a 100 fold concentrated solution of the test compound in DMSO was pipetted into a black low volume 384 well microtiter plate (Greiner Bio-One, Frickenhausen, Germany), 2 μl of a solution of CDK9/CycT1 in aqueous assay buffer [50 mM Tris/HCl pH 8.0, 10 mM MgCl2, 1.0 mM dithiothreitol, 0.1 mM sodium ortho-vanadate, 0.01% (v/v) Nonidet-P40 (Sigma)] were added and the mixture was incubated for 15 min at 22° C. to allow pre-binding of the test compounds to the enzyme before the start of the kinase reaction. […] The concentration of CDK9/CycT1 was adjusted depending of the activity of the enzyme lot and was chosen appropriate to have the assay in the linear range, typical concentrations were in the range of 1 μg/mL. The reaction was stopped by the addition of 5 μl of a solution of TR-FRET detection reagents (0.2 μM streptavidine-XL665 [Cisbio Bioassays, Codolet, France] and 1 nM anti-RB(pSer807/pSer811)-antibody from BD Pharmingen [#558389] and 1.2 nM LANCE EU-W1024 labeled anti-mouse IgG antibody [Perkin-Elmer, product no. AD0077]) in an aqueous EDTA-solution (100 mM EDTA, 0.2% (w/v) bovine serum albumin in 100 mM HEPES pH 7.5).
The resulting mixture was incubated 1 h at 22° C. to allow the formation of complex between the phosphorylated biotinylated peptide and the detection reagents. Subsequently the amount of phosphorylated substrate was evaluated by measurement of the resonance energy transfer from the Eu-chelate to the streptavidine-XL. Therefore, the fluorescence emissions at 620 nm and 665 nm after excitation at 350 nm was measured in a HTRF reader, e.g. a Rubystar (BMG Labtechnologies, Offenburg, Germany) or a Viewlux (Perkin-Elmer). The ratio of the emissions at 665 nm and at […] was taken as the measure for the amount of phosphorylated substrate. The data were normalised (enzyme reaction without inhibitor=0% inhibition, all other assay components but no enzym=100% inhibition).
For orientation: Time-resolved FRET reads energy transfer from a long-lived donor to a nearby acceptor.

Regarding `CS(=N)(=O)Cc1cc2nc(c1)Nc1cc(c(F)cn1)-c1ccc(F)cc1OCCCN2` (racemic) [Example 8, (rac)-15,19-difluoro-8-[(S-methylsulfonimidoyl)methyl]-2,3,4,5-tetrahydro-11H-10,6-(azeno)-16,12-(metheno)-1,5,11,13-benzoxatriazacyclooctadecine], the IC50 is 0.0033 µM with HeLa cells; 0.005 µM in the experiment with HeLa-MaTu-ADR cells; 0.0076 µM in the experiment on Caco-2 cells; 0.011 µM in the experiment with B16F10 cells; 0.039 µM in the experiment on NCI-H460 cells; 0.0056 µM in the experiment with DU145 cells. The same compound yielded an IC50 at CDK9/CycT1 of 0.0027 µM. On CDK9/CycT1, the “Selectivity CDK9 over CDK2: IC50 (CDK2)/IC50 (CDK9)” value (“Selectivity CDK9 over CDK2: IC50” for short) was found to be 3.4.
Consider `CC(C)(C)OC(=O)N=S(C)(=O)Cc1cc2nc(c1)Nc1cc(c(F)cn1)-c1ccc(F)cc1OCCCCCN2` (racemic) [Example 9, (rac)-tert-butyl[{[17,21-difluoro-2,3,4,5,6,7-hexahydro-13H-12,8-(azeno)-14,18-(metheno)-1,7,13,15-benzoxatriazacycloicosin-10-yl]methyl}(methyl)oxido-λ^6-sulfanylidene]carbamate], for which the IC50 came to 0.033 µM in the experiment on HeLa cells; 0.075 µM in the experiment on HeLa-MaTu-ADR cells; 0.048 µM with Caco-2 cells; 0.085 µM in the experiment on B16F10 cells; 0.039 µM with NCI-H460 cells; 0.036 µM in the experiment on DU145 cells. The IC50 against CDK9/CycT1 was 0.013 µM. The “Selectivity CDK9 over CDK2: IC50” value on CDK9/CycT1 is recorded as 7.4.
Turning to `CS(=N)(=O)Cc1cc2nc(c1)Nc1cc(c(F)cn1)-c1ccc(F)cc1OCCCCCN2` (racemic) [Example 10, (rac)-17,21-difluoro-10-[(S-methylsulfonimidoyl)methyl]-2,3,4,5,6,7-hexahydro-13H-12,8-(azeno)-14,18-(metheno)-1,7,13,15-benzoxatriazacycloicosine], the IC50 came out at 0.014 µM with HeLa cells; 0.019 µM in the experiment with HeLa-MaTu-ADR cells; 0.013 µM with Caco-2 cells; 0.026 µM in the experiment with B16F10 cells; 0.018 µM with NCI-H460 cells; 0.011 µM in the experiment with DU145 cells. Also, the IC50 on CDK9/CycT1 worked out at 0.0034 µM. For the same compound, the “Selectivity CDK9 over CDK2: IC50” value at CDK9/CycT1 was found to be 8.2.
For the compound `CN1CCCCOc2cc(F)ccc2-c2cc(ncc2F)Nc2cc(CS(C)(=N)=O)cc1n2` (racemic) [Example 11, (rac)-16,20-difluoro-6-methyl-9-[(S-methylsulfonimidoyl)methyl]-3,4,5,6-tetrahydro-2H-7,11-(azeno)-17,13-(metheno)-1,6,12,14-benzoxatriazacyclononadecine], the IC50 with HeLa cells was 0.01 µM; in the experiment on HeLa-MaTu-ADR cells, 0.012 µM; in the experiment on Caco-2 cells, 0.0089 µM; in the experiment with B16F10 cells it was 0.012 µM; with NCI-H460 cells it was 0.012 µM; in the experiment with DU145 cells, 0.012 µM. For the same compound, the IC50 on CDK9/CycT1 was found to be 0.0051 µM. Moreover, the “Selectivity CDK9 over CDK2: IC50” value on CDK9/CycT1 is 6.7.
On to `CC(C)(C)OC(=O)N=S(C)(=O)Cc1cc2cc(c1)OCCCCNc1cc(F)ccc1-c1nc(ncc1F)N2` (racemic) [Example 15, (rac)-tert-butyl[{[16,20-difluoro-2,3,4,5-tetrahydro-1H,12H-13,17-(azeno)-11,7-(metheno)-6,1,12,14-benzoxatriazacyclononadecin-9-yl]methyl}(methyl)oxido-λ^6-sulfanylidene]carbamate], for which the IC50 stood at 0.033 µM in the experiment with HeLa cells; 0.063 µM in the experiment on HeLa-MaTu-ADR cells; 0.048 µM in the experiment with Caco-2 cells; 0.083 µM in the experiment with B16F10 cells; 0.064 µM in the experiment on NCI-H460 cells; 0.04 µM with DU145 cells. The IC50 against CDK9/CycT1 amounted to 0.0089 µM. The “Selectivity CDK9 over CDK2: IC50” value at CDK9/CycT1 is 29.4.
As for `CS(=N)(=O)Cc1cc2cc(c1)OCCCCNc1cc(F)ccc1-c1nc(ncc1F)N2` (racemic) [Example 16, (rac)-16,20-difluoro-9-[(S-methylsulfonimidoyl)methyl]-2,3,4,5-tetrahydro-1H-17,13-(azeno)-7,11-(metheno)-6,1,12,14-benzoxatriazacyclononadecine], the IC50 in the experiment on HeLa cells is 0.01 µM; in the experiment with HeLa-MaTu-ADR cells, 0.013 µM; in the experiment with Caco-2 cells it was 0.012 µM; in the experiment with B16F10 cells, 0.018 µM; in the experiment with NCI-H460 cells, 0.02 µM; in the experiment on DU145 cells it was 0.012 µM. The IC50 against CDK9/CycT1 was 0.0039 µM. Further, at CDK9/CycT1, the “Selectivity CDK9 over CDK2: IC50” value was found to be 7.7.
With `CN1CCCCNc2cc(F)ccc2-c2nc(ncc2F)Nc2cc(CS(C)(=N)=O)cc1c2.O=CO` (racemic) [Example 17, (rac)-16,20-difluoro-6-methyl-9-[(S-methylsulfonimidoyl)methyl]-1,2,3,4,5,6-hexahydro-12H-17,13-(azeno)-11,7-(metheno)-1,6,12,14-benzotetraazacyclononadecine; salt with formic acid], the IC50 was determined as 0.031 µM in the experiment on HeLa cells; 0.03 µM in the experiment on HeLa-MaTu-ADR cells; 0.024 µM in the experiment on Caco-2 cells; 0.038 µM with B16F10 cells; 0.035 µM in the experiment with NCI-H460 cells; 0.03 µM in the experiment on DU145 cells. Also, the IC50 on CDK9/CycT1 is 0.0042 µM. In addition, on CDK9/CycT1, the “Selectivity CDK9 over CDK2: IC50” value amounted to 17.6.
Take `C[S+]([O-])Cc1cc2nc(c1)OCCCCCc1cc(F)ccc1-c1cc(ncc1F)N2` (racemic) [Example 19, (rac)-2,19-difluoro-9-[(methylsulfinyl)methyl]-14,15,16,17-tetrahydro-6H,13H-7,11-(azeno)-5,1-(metheno)-12,4,6-benzoxadiazacyclononadecine]: the IC50 was 1 µM in the experiment on HeLa cells; 0.888 µM in the experiment on HeLa-MaTu-ADR cells; 0.944 µM with Caco-2 cells; 1.55 µM in the experiment with B16F10 cells; 1.15 µM with NCI-H460 cells; 0.942 µM in the experiment with DU145 cells. This compound also yielded an IC50 against CDK9/CycT1 of 0.015 µM. Further, the “Selectivity CDK9 over CDK2: IC50” value at CDK9/CycT1 was 24.7.

For the origin of these results see patent US10214542B2, “Modified macrocyclic compounds” (BAYER PHARMA AKTIENGESELLSCHAFT, priority 2015, dated 2019).
